Measurements taken from PubChem BioAssay (NCI).
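Growth conditions: 96-well plates. Treatment: test compound, 48 hours, 5 concentrations. Analysis: linear interpolation between bracketing concentrations; unreached endpoints set to highest concentration. TGI: total growth inhibition.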

Tests used:
Test in all cases: growth of human tumour cells (NCI), 48 h
A498 renal = test system: A498 renal
ACHN renal = test system: ACHN renal
CAKI-1 renal = test system: CAKI-1 renal
CCRF-CEM leukemia = test system: CCRF-CEM leukemia
COLO 205 colon = test system: COLO 205 colon
DLD-1 colon = test system: DLD-1 colon
EKVX NSCLC = test system: EKVX NSCLC
HL-60(TB) leukemia = test system: HL-60(TB) leukemia
HOP-62 NSCLC = test system: HOP-62 NSCLC
HOP-92 NSCLC = test system: HOP-92 NSCLC
HT29 colon = test system: HT29 colon
IGROV1 ovarian = test system: IGROV1 ovarian
K-562 leukemia = test system: K-562 leukemia
KM12 colon = test system: KM12 colon
KM20L2 colon = test system: KM20L2 colon
LOX IMVI melanoma = test system: LOX IMVI melanoma
MOLT-4 leukemia = test system: MOLT-4 leukemia
NCI-H226 lung = test system: NCI-H226 lung
NCI-H23 lung = test system: NCI-H23 lung
OVCAR-4 ovarian = test system: OVCAR-4 ovarian
OVCAR-5 ovarian = test system: OVCAR-5 ovarian
OVCAR-8 ovarian = test system: OVCAR-8 ovarian
RPMI-8226 leukemia = test system: RPMI-8226 leukemia
SF-295 CNS = test system: SF-295 CNS
SF-539 CNS = test system: SF-539 CNS
SK-MEL-5 melanoma = test system: SK-MEL-5 melanoma
SN12C renal = test system: SN12C renal
SNB-19 CNS = test system: SNB-19 CNS
SNB-75 CNS = test system: SNB-75 CNS
SR leukemia = test system: SR leukemia
SW-620 colon = test system: SW-620 colon
TK-10 renal = test system: TK-10 renal
UACC-257 melanoma = test system: UACC-257 melanoma
UACC-62 melanoma = test system: UACC-62 melanoma
786-0 renal = test system: 786-0 renal
BT-549 breast = test system: BT-549 breast
DU-145 prostate = test system: DU-145 prostate
HCC-2998 colon = test system: HCC-2998 colon
HCT-116 colon = test system: HCT-116 colon
HS 578T breast = test system: HS 578T breast
M14 melanoma = test system: M14 melanoma
MALME-3M melanoma = test system: MALME-3M melanoma
MCF7 breast = test system: MCF7 breast
MDA-MB-231 breast = test system: MDA-MB-231 breast
MDA-MB-435 = test system: MDA-MB-435
MDA-N = test system: MDA-N
NCI-H460 lung = test system: NCI-H460 lung
NCI-H522 lung = test system: NCI-H522 lung
NCI/ADR-RES ovarian = test system: NCI/ADR-RES ovarian
OVCAR-3 ovarian = test system: OVCAR-3 ovarian
PC-3 prostate = test system: PC-3 prostate
RXF 393 renal = test system: RXF 393 renal
SF-268 CNS = test system: SF-268 CNS
SK-MEL-2 melanoma = test system: SK-MEL-2 melanoma
SK-MEL-28 melanoma = test system: SK-MEL-28 melanoma
SK-OV-3 ovarian = test system: SK-OV-3 ovarian
T-47D breast = test system: T-47D breast
U251 CNS = test system: U251 CNS
UO-31 renal = test system: UO-31 renal
A549 NSCLC = test system: A549 NSCLC
HCT-15 colon = test system: HCT-15 colon

COC(=O)/C(=N\NC(C)(C)C)C(C(=O)C(=O)Nc1cc(C)ccc1C)c1nc2ccccc2[nH]c1=O (stereo not given)
TGI (A498 renal): > 100 µM | TGI (ACHN renal): > 100 µM | TGI (CAKI-1 renal): > 100 µM | TGI (CCRF-CEM leukemia): > 100 µM | TGI (COLO 205 colon): > 100 µM | TGI (DLD-1 colon): > 100 µM | TGI (EKVX NSCLC): > 100 µM | TGI (HL-60(TB) leukemia): > 100 µM | TGI (HOP-62 NSCLC): > 100 µM | TGI (HOP-92 NSCLC): > 100 µM | TGI (HT29 colon): > 100 µM | TGI (IGROV1 ovarian): > 100 µM | TGI (K-562 leukemia): > 100 µM | TGI (KM12 colon): > 100 µM | TGI (KM20L2 colon): > 100 µM | TGI (LOX IMVI melanoma): > 100 µM | TGI (MOLT-4 leukemia): > 100 µM | TGI (NCI-H226 lung): > 100 µM | TGI (NCI-H23 lung): > 100 µM | TGI (OVCAR-4 ovarian): > 100 µM | TGI (OVCAR-5 ovarian): > 100 µM | TGI (OVCAR-8 ovarian): > 100 µM | TGI (RPMI-8226 leukemia): > 100 µM | TGI (SF-295 CNS): > 100 µM | TGI (SF-539 CNS): > 100 µM | TGI (SK-MEL-5 melanoma): > 100 µM | TGI (SN12C renal): > 100 µM | TGI (SNB-19 CNS): > 100 µM | TGI (SNB-75 CNS): > 100 µM | TGI (SR leukemia): > 100 µM | TGI (SW-620 colon): > 100 µM | TGI (TK-10 renal): > 100 µM | TGI (UACC-257 melanoma): > 100 µM | TGI (UACC-62 melanoma): > 100 µM

c1ccc2c(c1)Sc1nccc3ccnc-2c13
TGI (786-0 renal): > 100 µM | TGI (A498 renal): > 100 µM | TGI (ACHN renal): 43.4 µM | TGI (BT-549 breast): > 100 µM | TGI (CAKI-1 renal): 41 µM | TGI (CCRF-CEM leukemia): > 100 µM | TGI (COLO 205 colon): > 100 µM | TGI (DU-145 prostate): > 100 µM | TGI (EKVX NSCLC): > 100 µM | TGI (HCC-2998 colon): > 100 µM | TGI (HCT-116 colon): > 100 µM | TGI (HL-60(TB) leukemia): > 100 µM | TGI (HOP-62 NSCLC): > 100 µM | TGI (HOP-92 NSCLC): > 100 µM | TGI (HS 578T breast): 65.3 µM | TGI (HT29 colon): 65.5 µM | TGI (IGROV1 ovarian): > 100 µM | TGI (K-562 leukemia): > 100 µM | TGI (KM12 colon): > 100 µM | TGI (LOX IMVI melanoma): > 100 µM | TGI (M14 melanoma): > 100 µM | TGI (MALME-3M melanoma): > 100 µM | TGI (MCF7 breast): > 100 µM | TGI (MDA-MB-231 breast): > 100 µM | TGI (MDA-MB-435): > 100 µM | TGI (MDA-N): > 100 µM | TGI (MOLT-4 leukemia): 56.6 µM | TGI (NCI-H226 lung): > 100 µM | TGI (NCI-H23 lung): > 100 µM | TGI (NCI-H460 lung): 33.2 µM | TGI (NCI-H522 lung): 97.1 µM | TGI (NCI/ADR-RES ovarian): > 100 µM | TGI (OVCAR-3 ovarian): > 100 µM | TGI (OVCAR-4 ovarian): > 100 µM | TGI (OVCAR-5 ovarian): > 100 µM | TGI (OVCAR-8 ovarian): > 100 µM | TGI (PC-3 prostate): > 100 µM | TGI (RPMI-8226 leukemia): > 100 µM | TGI (RXF 393 renal): > 100 µM | TGI (SF-268 CNS): > 100 µM | TGI (SF-295 CNS): > 100 µM | TGI (SF-539 CNS): > 100 µM | TGI (SK-MEL-2 melanoma): > 100 µM | TGI (SK-MEL-28 melanoma): > 100 µM | TGI (SK-MEL-5 melanoma): > 100 µM | TGI (SK-OV-3 ovarian): > 100 µM | TGI (SN12C renal): > 100 µM | TGI (SNB-19 CNS): > 100 µM | TGI (SNB-75 CNS): 58.7 µM | TGI (SR leukemia): > 100 µM | TGI (SW-620 colon): > 100 µM | TGI (T-47D breast): > 100 µM | TGI (TK-10 renal): > 100 µM | TGI (U251 CNS): > 100 µM | TGI (UACC-257 melanoma): > 100 µM | TGI (UACC-62 melanoma): > 100 µM | TGI (UO-31 renal): 47.6 µM

CC(CCC(=O)O)C(=O)O (stereo not given)
TGI (786-0 renal): > 100 µM | TGI (A498 renal): > 100 µM | TGI (A549 NSCLC): > 100 µM | TGI (ACHN renal): > 100 µM | TGI (BT-549 breast): > 100 µM | TGI (CAKI-1 renal): > 100 µM | TGI (CCRF-CEM leukemia): > 100 µM | TGI (COLO 205 colon): > 100 µM | TGI (DU-145 prostate): > 100 µM | TGI (EKVX NSCLC): > 100 µM | TGI (HCC-2998 colon): > 100 µM | TGI (HCT-116 colon): > 100 µM | TGI (HCT-15 colon): > 100 µM | TGI (HL-60(TB) leukemia): > 100 µM | TGI (HOP-62 NSCLC): > 100 µM | TGI (HOP-92 NSCLC): > 100 µM | TGI (HS 578T breast): > 100 µM | TGI (HT29 colon): > 100 µM | TGI (IGROV1 ovarian): > 100 µM | TGI (K-562 leukemia): > 100 µM | TGI (KM12 colon): > 100 µM | TGI (LOX IMVI melanoma): > 100 µM | TGI (M14 melanoma): > 100 µM | TGI (MALME-3M melanoma): > 100 µM | TGI (MCF7 breast): > 100 µM | TGI (MDA-MB-231 breast): > 100 µM | TGI (MDA-MB-435): > 100 µM | TGI (MDA-N): > 100 µM | TGI (MOLT-4 leukemia): > 100 µM | TGI (NCI-H226 lung): > 100 µM | TGI (NCI-H23 lung): > 100 µM | TGI (NCI-H460 lung): > 100 µM | TGI (NCI-H522 lung): > 100 µM | TGI (NCI/ADR-RES ovarian): > 100 µM | TGI (OVCAR-3 ovarian): > 100 µM | TGI (OVCAR-4 ovarian): > 100 µM | TGI (OVCAR-5 ovarian): > 100 µM | TGI (OVCAR-8 ovarian): > 100 µM | TGI (PC-3 prostate): > 100 µM | TGI (RPMI-8226 leukemia): > 100 µM | TGI (RXF 393 renal): > 100 µM | TGI (SF-268 CNS): > 100 µM | TGI (SF-295 CNS): > 100 µM | TGI (SF-539 CNS): > 100 µM | TGI (SK-MEL-2 melanoma): > 100 µM | TGI (SK-MEL-28 melanoma): > 100 µM | TGI (SK-MEL-5 melanoma): > 100 µM | TGI (SK-OV-3 ovarian): > 100 µM | TGI (SN12C renal): > 100 µM | TGI (SNB-19 CNS): > 100 µM | TGI (SNB-75 CNS): > 100 µM | TGI (SR leukemia): > 100 µM | TGI (SW-620 colon): > 100 µM | TGI (T-47D breast): > 100 µM | TGI (TK-10 renal): > 100 µM | TGI (U251 CNS): > 100 µM | TGI (UACC-257 melanoma): > 100 µM | TGI (UACC-62 melanoma): > 100 µM | TGI (UO-31 renal): > 100 µM
